The values below come from patent US10597398B2, “Suppression and regeneration promoting effect of low molecular weight compound on cancer and fibrosis” (NATIONAL UNIVERSITY CORPORATION TOTTORI UNIVERSITY, priority 2015, dated 2020).

The structures appear in SMILES notation.

The test system of test [1] is cancer stem cells (CD44) in HuH-7 cells. Nature of the test: Inhibitory effect on cancer stem cells (FCM analysis of CD44), Example 2.4. It is filed as cell-based, human. The conditions noted are these: comparison with IC-2. As for the experimental part: CD44, a cancer stem cell marker, was used as an indicator to examine an inhibitory effect of each compound on cancer stem cells. The concentrations of the respective compounds were as described in FIG. 32. Each control sample used was 0.1% DMSO, a solvent for each compound. In the figures, the “‡” indicates a significant difference of p<0.01.
First, 70 to 90% confluent HuH-7 cells were harvested and seeded at 1.5×10^6 cells per 10-cm cell culture dish. After 24 h, each compound was added to the cells and the mixture was cultured at 37° C. At 48 h after the compound treatment, the cells were harvested from each culture dish. The cells were centrifuged at 1000 rpm and at 4° C. for 3 min to remove a supernatant and were then washed twice with 1 mL of 0.5% FBS/2 mM EDTA/PBS. Next, the cells were suspended in 500 μL of 5% BSA/0.5% FBS/2 mM EDTA/PBS for blocking at 4° C. for 15 min. Then, 5 μL of a mouse anti-human CD44 monoclonal antibody (156-3C11, Cell Signaling Technology Inc., Danvers, Mass.) was added to 500 μL of the cell suspension. The mixture was resuspended and subjected to a primary antibody reaction in a dark room at 4° C. for 30 min. After that, the cells were washed 3 times with 1 mL of 0.5% FBS/2 mM EDTA/PBS. Subsequently, 100 μL of Alexa Fluor 488-labeled IgG (H+L) (ab150113, Abcam Ltd., Cambridge, UK), which had been diluted 200-fold with 5% BSA/0.5% FBS/2 mM EDTA/PBS, was added and the cells were suspended. Then, a secondary antibody reaction was carried out in a dark room at 4° C. for 30 min. After that, the cells were washed 3 times with 1 mL of 0.5% FBS/2 mM EDTA/PBS. Thereafter, the cells were suspended in 500 μL of 0.5% FBS/2 mM EDTA/PBS and were made to pass through a 40 μm-mesh column (Becton, Dickinson and Company, Franklin Lakes, N.J.). A Beckman Coulter-Moflo XDP (Beckman Coulter Inc., Fullerton, Calif.) was used for analysis. Following the analysis, further analysis was conducted by adding 2 μL of 0.25 mg/mL Propidium Iodide (PI). The same experiment was repeated four times.

Another test has as its system liver fibrosis. Nature of the test: Non-alcoholic steatohepatitis model mouse (Azan staining). It is filed as in vivo, C57BL/6JHamSlc-ob/ob male mice. The settings on record: high fat diet 12 weeks, drug for last 6 weeks, IC-2 21.2 mg/kg i.p. 3 times a week, vs vehicle group. How it is done:
To induce anesthesia, 1-mL disposable syringe with a 27-G needle was used to intraperitoneally inject, into a mouse, 1 μL/g body weight of a systemic anesthetic somnopentyl (Kyoritsuseiyaku Corporation, Tokyo).
The liver tissue sample, as so resected, was fixed in 4% paraformaldehyde at room temperature for 16 h, embedded in paraffin, and sectioned with a microtome to prepare tissue sections. The tissue sections were subjected to deparaffinization using xylene (Nacalai tesque) and a hydration reaction with ethanol (Nacalai tesque), and were then allowed to stand in 5% potassium dichromate/trichloroacetic acid aqueous solution (Wako Pure Chemical Industries, Ltd.) for 20 min. After washing in running water for 5 min, the tissue sections were stained with Azocarmine G (Wako Pure Chemical Industries, Ltd.) at 60° C. for 1 h, washed with water, and then destained for 3 min in 5% aniline (Nacalai tesque)-containing ethanol solution. Next, 5% acetic acid (Nacalai tesque)-containing ethanol solution was used to stop the destaining reaction. After washing with water, the tissue sections were allowed to stand in 5% phosphotungstic acid aqueous solution (Alfa Aesar, Ward Hill, Mass.) for 1 h. […] The ratio of the blue-stained fiber area to the total tissue area of each photographed image was quantified to calculate a fibrosis-positive area ratio. […]

Regarding `COc1ccc(COc2ccc(CNC(=O)N3CCC(=O)N4C(Cc5ccccc5)C(=O)N(Cc5cccc6ccccc56)CC34)cc2)cc1` (centres unmarked) [IC-2-OPMB], in test [1], the “inhibitory effect on cancer stem cells compared with IC-2” value is “more potent inhibitory effect on cancer stem cells than IC-2”.
For the molecule `O=C1C(Cc2ccccc2)N2C(=O)CCN(C(=O)NCc3ccccc3)C2CN1Cc1cccc2ccccc12` (centres unmarked) [IC-2], in the test with liver fibrosis, the “fibrosis area (Azan staining)” value was “decrease more than that of the vehicle group”.
